According to ChEMBL document CHEMBL1201862, “PubChem BioAssay data set” (2004):
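Where inhibition never reached the appropriate level, the endpoint shown equals the highest concentration tested. Otherwise, values were interpolated linearly from a five-concentration, 48-hour dose response in 96-well plates. At the GI50, growth is halved.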 The source made the active and inactive calls. Cut-off read from the data, not from the text of the source: active = GI50 up to about 1.1 µM and inactive = higher.

What was measured:
Test in all cases: NCI tumour cell line growth inhibition, 48 h
[1] = system: 786-0
[2] = system: A549
[3] = system: ACHN
[4] = system: COLO 205
[5] = system: HCT-15
[6] = system: HL-60
[7] = system: HOP-62
[8] = system: IGROV-1
[9] = system: K562
[10] = system: KM12
[11] = system: LOX IMVI
[12] = system: M14
[13] = system: MCF7
[14] = system: MDA-N
[15] = system: NCI-H522
[16] = system: OVCAR-8
[17] = system: SF-268
[18] = system: SF-539
[19] = system: SNB-19
[20] = system: SR

SMILES	GI50 [1]	GI50 [2]	GI50 [3]	GI50 [4]	GI50 [5]	GI50 [6]	GI50 [7]	GI50 [8]	GI50 [9]	GI50 [10]	GI50 [11]	GI50 [12]	GI50 [13]	GI50 [14]	GI50 [15]	GI50 [16]	GI50 [17]	GI50 [18]	GI50 [19]	GI50 [20]
O=C(O)C(Cc1ccc(O)c([N+](=O)[O-])c1)N1C(=O)c2ccccc2C1=O (stereo not given)	> 100 µM (inactive)	> 100 µM (inactive)	> 100 µM (inactive)	> 100 µM (inactive)	> 100 µM	18.6 µM (inactive)	> 100 µM (inactive)	> 100 µM (inactive)	> 100 µM (inactive)	> 100 µM (inactive)	> 100 µM (inactive)	> 100 µM (inactive)	> 100 µM (inactive)	> 100 µM (inactive)	> 100 µM (inactive)	> 100 µM (inactive)	> 100 µM (inactive)	> 100 µM (inactive)	> 100 µM (inactive)	> 100 µM (inactive)
C/C1=C/C(C)CC(C)OC(=O)C(C)NC(=O)C(Cc2ccc(O)c(I)c2)N(C)C(=O)CNC(=O)C(C)C1 (stereo not given)	< 0.01 µM (active)	< 0.01 µM (active)	< 0.01 µM (active)	< 0.01 µM (active)	< 0.0121 µM	< 0.01 µM (active)	< 0.01 µM (active)	< 0.01 µM (active)	< 0.01 µM (active)	< 0.01 µM (active)	< 0.01 µM (active)	0.0102 µM (active)	0.125 µM (active)	< 0.01 µM (active)	< 0.01 µM (active)	0.0306 µM (active)	< 0.0186 µM (active)	< 0.01 µM (active)	2.42 µM (inactive)	< 0.01 µM (active)
C=C(C)C1CC=C(C)C2(C1)OCC(C)(C)C(C)O2 (stereo not given)	17.6 µM (inactive)	17.3 µM (inactive)	18.3 µM (inactive)	18.1 µM (inactive)	16.4 µM	15 µM (inactive)	16.6 µM (inactive)	22.9 µM (inactive)	18.5 µM (inactive)	16.9 µM (inactive)	17.5 µM (inactive)	22.2 µM (inactive)	17.1 µM (inactive)	21 µM (inactive)	17.7 µM (inactive)	16.5 µM (inactive)	19.8 µM (inactive)	22.2 µM (inactive)	18.3 µM (inactive)	18.2 µM (inactive)
CCCC(=O)OCC1OC(n2cc(F)c(=O)[nH]c2=O)CC1O (stereo not given)	0.337 µM (active)	0.0489 µM (active)	0.0395 µM (active)	2.22 µM (inactive)	> 7.53 µM	0.614 µM (active)	0.0553 µM (active)	> 8.09 µM (inactive)	1.87 µM (inactive)	> 10 µM (inactive)	0.0303 µM (active)	0.314 µM (active)	0.00463 µM (active)	1.45 µM (inactive)	3.84 µM (inactive)	0.118 µM (active)	0.0306 µM (active)	0.00432 µM (active)	> 10 µM (inactive)	0.0265 µM (active)
O=C(N/N=C/c1ccc([N+](=O)[O-])cc1)Nc1ccc(C(=O)O)cc1	39.1 µM (inactive)	35.3 µM (inactive)	26.7 µM (inactive)	23.1 µM (inactive)	25.5 µM	37.2 µM (inactive)	21.6 µM (inactive)	33.1 µM (inactive)	13.3 µM (inactive)	27.7 µM (inactive)	31.3 µM (inactive)	37.4 µM (inactive)	27.4 µM (inactive)	30.5 µM (inactive)	7.85 µM (inactive)	28.6 µM (inactive)	44 µM (inactive)	49.3 µM (inactive)	38.6 µM (inactive)	43.5 µM (inactive)
O=[N+]([O-])C(=C(Sc1ccccc1)Sc1ccccc1)C(Cl)=C(Cl)Cl	0.0703 µM (active)	2.22 µM (inactive)	0.248 µM (active)	0.157 µM (active)	0.319 µM	0.141 µM (active)	1.91 µM (inactive)	1.19 µM (inactive)	0.0923 µM (active)	2.44 µM (inactive)	0.177 µM (active)	0.421 µM (active)	0.21 µM (active)	0.23 µM (active)	0.0776 µM (active)	0.23 µM (active)	2 µM (inactive)	2.13 µM (inactive)	10.6 µM (inactive)	0.0975 µM (active)
COc1cc2c3c(n(Cc4ccccc4)c(=O)c2cc1OC)-c1ccccc1C3=O	93.5 µM (inactive)	> 100 µM (inactive)	> 100 µM (inactive)	> 100 µM (inactive)	> 100 µM	> 100 µM (inactive)	> 100 µM (inactive)	> 100 µM (inactive)	> 100 µM (inactive)	> 100 µM (inactive)	> 100 µM (inactive)	> 100 µM (inactive)	> 100 µM (inactive)	> 100 µM (inactive)	> 100 µM (inactive)	> 100 µM (inactive)	82.2 µM (inactive)	90.2 µM (inactive)	> 100 µM (inactive)	4.1 µM (inactive)
Cc1cc(C)c2c(n1)S(=O)(=O)N(CCCN1CCN(c3cccc(Cl)c3)CC1)C(C(=O)c1ccccc1)=C2O	19.5 µM (inactive)	30.4 µM (inactive)	30.6 µM (inactive)	18.7 µM (inactive)	24.8 µM	31.6 µM (inactive)	36.6 µM (inactive)	40.3 µM (inactive)	35.6 µM (inactive)	33.7 µM (inactive)	6.01 µM (inactive)	25.6 µM (inactive)	29.8 µM (inactive)	25.9 µM (inactive)	24.8 µM (inactive)	36.6 µM (inactive)	39 µM (inactive)	40.6 µM (inactive)	30.2 µM (inactive)	17.1 µM (inactive)
C/C=C1/CN2CCC3(O)c4ccccc4N4C=C(C(=O)OC)C1CC2C43O (stereo not given)	> 100 µM (inactive)	> 100 µM (inactive)	> 100 µM (inactive)	> 100 µM (inactive)	> 100 µM	> 100 µM (inactive)	> 100 µM (inactive)	> 100 µM (inactive)	81.5 µM (inactive)	> 100 µM (inactive)	> 100 µM (inactive)	> 100 µM (inactive)	> 100 µM (inactive)	> 100 µM (inactive)	> 100 µM (inactive)	> 100 µM (inactive)	> 100 µM (inactive)	> 100 µM (inactive)	> 100 µM (inactive)	> 100 µM (inactive)
COc1cc(C=O)ccc1O [VANILLIN]	> 100 µM (inactive)	> 100 µM (inactive)	> 100 µM (inactive)	> 100 µM (inactive)	> 100 µM	> 100 µM (inactive)	> 100 µM (inactive)	> 100 µM (inactive)	> 100 µM (inactive)	> 100 µM (inactive)	> 100 µM (inactive)	> 100 µM (inactive)	> 100 µM (inactive)	> 100 µM (inactive)	> 100 µM (inactive)	> 100 µM (inactive)	> 100 µM (inactive)	> 100 µM (inactive)	> 100 µM (inactive)	> 100 µM (inactive)
